Results: ChEMBL document CHEMBL1201862, “PubChem BioAssay data set” (2004)
Active and inactive are the calls of the source.

Tests used:
Fatty acid synthase = Fatty acid synthase (Homo sapiens, UniProt P49327); assay: FAS thioesterase domain inhibitors, dose response, biochemical, kinetic fluorescence intensity (AID 624326); format: functional;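 further: rate of fluorescence rise from hydrolysis of a fluorogenic O-methyl fluorescein ester substrate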
[1] = target: T1, Rac GTPase-activating protein 1 (Homo sapiens, UniProt Q9H0H5); assay: MgcRacGAP GTPase-activating activity inhibitors, confirmation, biochemical, ADP Hunter fluorescence, primary and confirmatory (AID 624330); format: functional
T1 sequence (Q9H0H5 whole entry): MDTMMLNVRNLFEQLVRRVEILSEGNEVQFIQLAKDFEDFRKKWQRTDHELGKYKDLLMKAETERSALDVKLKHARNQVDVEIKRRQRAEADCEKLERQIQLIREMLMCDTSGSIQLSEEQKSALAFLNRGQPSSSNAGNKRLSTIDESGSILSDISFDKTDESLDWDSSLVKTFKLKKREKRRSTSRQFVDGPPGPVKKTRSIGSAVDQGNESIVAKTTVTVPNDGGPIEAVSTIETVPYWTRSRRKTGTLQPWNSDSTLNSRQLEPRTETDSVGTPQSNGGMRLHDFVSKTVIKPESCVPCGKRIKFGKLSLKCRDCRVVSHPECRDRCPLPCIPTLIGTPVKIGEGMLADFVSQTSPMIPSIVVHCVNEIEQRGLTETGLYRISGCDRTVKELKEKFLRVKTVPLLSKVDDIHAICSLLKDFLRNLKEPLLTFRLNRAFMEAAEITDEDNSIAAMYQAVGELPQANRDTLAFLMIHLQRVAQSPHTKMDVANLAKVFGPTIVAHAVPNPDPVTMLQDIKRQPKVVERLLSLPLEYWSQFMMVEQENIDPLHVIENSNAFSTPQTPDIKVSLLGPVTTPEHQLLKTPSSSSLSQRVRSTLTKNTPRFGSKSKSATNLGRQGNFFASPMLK

[2] = target: Peroxisome proliferator-activated receptor gamma/Nuclear receptor coactivator 2 (Homo sapiens, UniProt P37231); format: functional;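 further: agonist potency for raising coactivator recruitment to the receptor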
[3] = target: Ras and Rab interactor 1/Tyrosine-protein kinase ABL1 (Homo sapiens, UniProt P00519+Q13671); format: functional;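 further: biochemical TR-FRET dose-response test measuring inhibition of binding between Rin1 and Abl proteins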
[4] = target: T2, Sentrin-specific protease 6 (Homo sapiens, UniProt Q9GZR1); format: functional;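 further: Luminescence-based dose-response confirmatory assay of SENP6 inhibition, following up an ultra-high-throughput screen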
T2 sequence (Q9GZR1 whole entry): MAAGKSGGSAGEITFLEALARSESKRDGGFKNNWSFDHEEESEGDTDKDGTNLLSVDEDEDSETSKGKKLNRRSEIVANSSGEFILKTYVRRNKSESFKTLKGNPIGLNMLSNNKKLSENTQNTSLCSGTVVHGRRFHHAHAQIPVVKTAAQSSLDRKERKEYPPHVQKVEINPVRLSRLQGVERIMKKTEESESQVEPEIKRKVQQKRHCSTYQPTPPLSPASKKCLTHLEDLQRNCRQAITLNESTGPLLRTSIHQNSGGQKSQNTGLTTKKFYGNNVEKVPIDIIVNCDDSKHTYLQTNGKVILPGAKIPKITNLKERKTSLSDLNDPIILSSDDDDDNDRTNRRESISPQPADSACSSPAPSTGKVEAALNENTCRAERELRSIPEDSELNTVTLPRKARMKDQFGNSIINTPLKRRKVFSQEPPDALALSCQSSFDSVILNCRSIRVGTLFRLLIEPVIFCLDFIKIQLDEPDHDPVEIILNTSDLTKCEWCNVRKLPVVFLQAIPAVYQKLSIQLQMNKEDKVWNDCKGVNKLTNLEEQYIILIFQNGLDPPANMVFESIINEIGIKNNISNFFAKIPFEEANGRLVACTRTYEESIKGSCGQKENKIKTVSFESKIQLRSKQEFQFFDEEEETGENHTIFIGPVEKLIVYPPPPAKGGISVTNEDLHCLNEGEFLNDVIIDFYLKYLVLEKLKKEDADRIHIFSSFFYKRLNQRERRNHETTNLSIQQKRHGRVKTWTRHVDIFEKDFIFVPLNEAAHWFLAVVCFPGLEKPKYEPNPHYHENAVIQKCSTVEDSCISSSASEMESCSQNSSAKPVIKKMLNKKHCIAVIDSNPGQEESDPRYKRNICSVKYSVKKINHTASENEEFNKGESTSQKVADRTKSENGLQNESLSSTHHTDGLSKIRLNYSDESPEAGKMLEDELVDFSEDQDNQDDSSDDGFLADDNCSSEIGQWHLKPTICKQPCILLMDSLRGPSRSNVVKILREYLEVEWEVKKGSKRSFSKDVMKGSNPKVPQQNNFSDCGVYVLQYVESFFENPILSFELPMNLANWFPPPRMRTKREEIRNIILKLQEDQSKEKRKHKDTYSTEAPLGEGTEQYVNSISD

[5] = target: T3, Sentrin-specific protease 7 (Homo sapiens, UniProt Q9BQF6); format: functional;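 further: Luminescence-based dose-response confirmation of ultra-high-throughput screening hits, measuring inhibition of SENP7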
T3 sequence (Q9BQF6 whole entry): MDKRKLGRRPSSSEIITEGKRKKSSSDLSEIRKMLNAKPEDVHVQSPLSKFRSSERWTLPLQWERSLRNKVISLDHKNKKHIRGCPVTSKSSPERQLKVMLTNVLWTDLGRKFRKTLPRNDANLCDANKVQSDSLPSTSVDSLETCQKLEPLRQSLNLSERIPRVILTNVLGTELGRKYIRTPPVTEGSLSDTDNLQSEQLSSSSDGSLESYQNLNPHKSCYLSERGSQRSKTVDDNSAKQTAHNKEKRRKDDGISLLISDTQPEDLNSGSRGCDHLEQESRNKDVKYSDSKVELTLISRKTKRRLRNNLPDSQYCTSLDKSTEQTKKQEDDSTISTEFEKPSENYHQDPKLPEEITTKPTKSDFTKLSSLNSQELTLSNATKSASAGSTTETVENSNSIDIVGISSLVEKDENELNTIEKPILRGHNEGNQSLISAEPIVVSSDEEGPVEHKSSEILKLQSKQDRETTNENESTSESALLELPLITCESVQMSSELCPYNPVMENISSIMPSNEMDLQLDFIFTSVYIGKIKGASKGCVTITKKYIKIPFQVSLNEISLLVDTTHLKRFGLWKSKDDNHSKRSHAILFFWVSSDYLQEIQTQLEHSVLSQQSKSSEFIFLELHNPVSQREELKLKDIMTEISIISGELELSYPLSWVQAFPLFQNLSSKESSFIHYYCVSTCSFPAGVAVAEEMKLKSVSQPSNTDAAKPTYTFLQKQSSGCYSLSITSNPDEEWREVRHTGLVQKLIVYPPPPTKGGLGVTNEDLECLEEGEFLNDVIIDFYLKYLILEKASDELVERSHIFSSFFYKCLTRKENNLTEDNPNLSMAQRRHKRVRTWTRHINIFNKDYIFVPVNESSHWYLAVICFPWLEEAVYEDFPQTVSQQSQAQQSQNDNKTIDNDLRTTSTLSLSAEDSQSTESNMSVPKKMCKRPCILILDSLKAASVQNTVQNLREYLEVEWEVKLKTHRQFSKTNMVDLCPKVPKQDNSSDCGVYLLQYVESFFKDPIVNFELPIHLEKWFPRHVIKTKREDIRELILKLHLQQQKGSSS

Chain of Ras and Rab interactor 1/Tyrosine-protein kinase ABL1 (P00519 whole entry): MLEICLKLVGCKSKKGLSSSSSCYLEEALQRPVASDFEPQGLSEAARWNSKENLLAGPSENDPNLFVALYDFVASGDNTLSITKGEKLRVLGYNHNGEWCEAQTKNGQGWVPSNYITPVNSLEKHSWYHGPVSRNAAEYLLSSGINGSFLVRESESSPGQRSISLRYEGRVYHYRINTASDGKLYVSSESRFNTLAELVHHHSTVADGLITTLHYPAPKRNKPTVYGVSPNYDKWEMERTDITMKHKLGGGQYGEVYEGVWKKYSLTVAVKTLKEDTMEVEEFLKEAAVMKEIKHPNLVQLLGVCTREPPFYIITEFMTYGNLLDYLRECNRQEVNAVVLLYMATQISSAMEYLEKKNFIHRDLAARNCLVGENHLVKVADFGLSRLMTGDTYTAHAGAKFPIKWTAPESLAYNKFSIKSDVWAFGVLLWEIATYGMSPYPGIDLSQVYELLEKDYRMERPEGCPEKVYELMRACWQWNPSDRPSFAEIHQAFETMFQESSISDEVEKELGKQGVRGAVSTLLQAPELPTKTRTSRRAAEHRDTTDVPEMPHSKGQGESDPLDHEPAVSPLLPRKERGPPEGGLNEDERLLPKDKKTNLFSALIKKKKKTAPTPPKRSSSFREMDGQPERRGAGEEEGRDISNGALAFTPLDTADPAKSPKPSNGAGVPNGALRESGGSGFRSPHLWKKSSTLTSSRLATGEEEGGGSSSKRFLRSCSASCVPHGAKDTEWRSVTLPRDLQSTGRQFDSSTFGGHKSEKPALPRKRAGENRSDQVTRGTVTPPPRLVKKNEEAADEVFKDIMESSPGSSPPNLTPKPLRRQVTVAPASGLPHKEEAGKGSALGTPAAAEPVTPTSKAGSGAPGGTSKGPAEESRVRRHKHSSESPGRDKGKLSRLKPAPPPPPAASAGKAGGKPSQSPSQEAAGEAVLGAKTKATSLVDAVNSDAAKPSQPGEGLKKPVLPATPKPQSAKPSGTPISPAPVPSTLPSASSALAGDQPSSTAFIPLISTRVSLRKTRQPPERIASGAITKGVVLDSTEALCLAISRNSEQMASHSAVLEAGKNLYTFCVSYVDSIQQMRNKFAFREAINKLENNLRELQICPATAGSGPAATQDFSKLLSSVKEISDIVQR
Chain of Ras and Rab interactor 1/Tyrosine-protein kinase ABL1 (Q13671 whole entry): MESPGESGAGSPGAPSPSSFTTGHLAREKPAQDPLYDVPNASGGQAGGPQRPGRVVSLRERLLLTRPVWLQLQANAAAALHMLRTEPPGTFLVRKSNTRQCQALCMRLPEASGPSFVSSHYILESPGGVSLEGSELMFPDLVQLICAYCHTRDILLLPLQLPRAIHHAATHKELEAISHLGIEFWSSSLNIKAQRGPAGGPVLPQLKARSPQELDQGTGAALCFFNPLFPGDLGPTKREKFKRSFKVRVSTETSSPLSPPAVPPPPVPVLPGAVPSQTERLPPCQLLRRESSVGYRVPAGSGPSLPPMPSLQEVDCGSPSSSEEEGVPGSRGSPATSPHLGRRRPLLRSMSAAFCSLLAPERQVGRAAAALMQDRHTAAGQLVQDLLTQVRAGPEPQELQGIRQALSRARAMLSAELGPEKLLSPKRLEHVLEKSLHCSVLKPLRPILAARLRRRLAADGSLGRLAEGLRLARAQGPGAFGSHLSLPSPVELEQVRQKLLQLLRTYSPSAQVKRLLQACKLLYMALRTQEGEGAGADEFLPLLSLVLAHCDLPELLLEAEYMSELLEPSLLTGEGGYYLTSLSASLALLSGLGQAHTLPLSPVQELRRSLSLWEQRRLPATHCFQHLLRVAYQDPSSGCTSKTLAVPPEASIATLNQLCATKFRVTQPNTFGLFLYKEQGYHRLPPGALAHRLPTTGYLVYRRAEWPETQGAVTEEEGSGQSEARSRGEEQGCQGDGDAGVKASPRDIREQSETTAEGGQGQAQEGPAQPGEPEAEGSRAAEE
Chain of Peroxisome proliferator-activated receptor gamma/Nuclear receptor coactivator 2 (P37231 whole entry): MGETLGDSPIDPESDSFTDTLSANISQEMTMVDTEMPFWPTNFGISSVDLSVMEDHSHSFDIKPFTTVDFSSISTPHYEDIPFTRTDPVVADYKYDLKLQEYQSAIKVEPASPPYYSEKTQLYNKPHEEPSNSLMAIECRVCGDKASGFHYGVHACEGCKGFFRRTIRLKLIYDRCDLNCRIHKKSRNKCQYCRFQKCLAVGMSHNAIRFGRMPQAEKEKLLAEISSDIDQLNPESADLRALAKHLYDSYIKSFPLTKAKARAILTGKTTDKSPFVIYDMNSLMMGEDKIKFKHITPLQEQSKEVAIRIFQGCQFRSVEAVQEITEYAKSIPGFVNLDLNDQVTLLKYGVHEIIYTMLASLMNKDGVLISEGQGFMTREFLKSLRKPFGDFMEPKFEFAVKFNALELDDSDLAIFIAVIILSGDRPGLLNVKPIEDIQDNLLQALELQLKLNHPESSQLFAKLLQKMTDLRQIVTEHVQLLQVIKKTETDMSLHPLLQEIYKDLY
Chain of Peroxisome proliferator-activated receptor gamma/Nuclear receptor coactivator 2 (Q15596 whole entry, further chain): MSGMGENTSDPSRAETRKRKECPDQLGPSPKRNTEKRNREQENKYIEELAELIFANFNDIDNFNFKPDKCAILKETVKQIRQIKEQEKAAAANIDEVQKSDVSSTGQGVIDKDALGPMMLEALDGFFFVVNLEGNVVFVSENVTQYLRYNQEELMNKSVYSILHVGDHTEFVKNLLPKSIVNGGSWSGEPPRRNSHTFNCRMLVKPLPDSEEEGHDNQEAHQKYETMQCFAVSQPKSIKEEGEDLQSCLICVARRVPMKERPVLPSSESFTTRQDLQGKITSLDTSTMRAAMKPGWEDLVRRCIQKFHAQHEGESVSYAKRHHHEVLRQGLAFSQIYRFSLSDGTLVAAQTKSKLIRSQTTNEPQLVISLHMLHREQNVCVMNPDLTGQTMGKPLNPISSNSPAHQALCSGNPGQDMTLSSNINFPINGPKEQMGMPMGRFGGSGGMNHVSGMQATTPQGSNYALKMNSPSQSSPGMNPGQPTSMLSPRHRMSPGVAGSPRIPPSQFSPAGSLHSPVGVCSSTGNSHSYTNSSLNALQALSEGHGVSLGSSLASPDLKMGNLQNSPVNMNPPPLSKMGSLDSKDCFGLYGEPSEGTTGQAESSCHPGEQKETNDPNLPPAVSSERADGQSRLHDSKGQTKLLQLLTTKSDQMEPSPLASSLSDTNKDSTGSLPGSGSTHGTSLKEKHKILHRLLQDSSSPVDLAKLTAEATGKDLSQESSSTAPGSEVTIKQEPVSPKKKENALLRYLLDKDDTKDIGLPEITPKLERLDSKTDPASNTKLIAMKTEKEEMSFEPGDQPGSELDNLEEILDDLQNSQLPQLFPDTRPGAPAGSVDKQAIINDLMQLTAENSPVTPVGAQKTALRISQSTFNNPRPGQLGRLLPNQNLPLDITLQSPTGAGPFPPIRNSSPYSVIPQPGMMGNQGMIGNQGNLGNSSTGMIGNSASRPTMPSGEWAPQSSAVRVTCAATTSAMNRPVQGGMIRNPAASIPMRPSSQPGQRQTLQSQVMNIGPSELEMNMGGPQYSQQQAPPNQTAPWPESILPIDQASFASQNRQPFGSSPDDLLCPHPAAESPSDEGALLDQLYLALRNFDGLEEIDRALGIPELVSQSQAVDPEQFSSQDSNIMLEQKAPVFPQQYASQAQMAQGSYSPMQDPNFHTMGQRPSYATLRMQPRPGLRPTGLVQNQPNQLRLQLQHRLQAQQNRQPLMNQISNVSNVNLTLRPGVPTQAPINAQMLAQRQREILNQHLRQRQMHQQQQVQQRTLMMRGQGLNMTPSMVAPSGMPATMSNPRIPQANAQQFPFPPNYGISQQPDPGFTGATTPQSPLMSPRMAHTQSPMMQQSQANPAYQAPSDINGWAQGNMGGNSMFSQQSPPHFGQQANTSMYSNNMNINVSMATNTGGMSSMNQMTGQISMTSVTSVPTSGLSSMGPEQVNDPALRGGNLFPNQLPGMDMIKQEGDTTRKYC

Q: Which IC50 (Fatty acid synthase) does the source give for `O=C(Nc1ccccc1Cl)/C(Cl)=C(\Cl)[S+]([O-])c1ccccc1` (configuration not stated) here?
A: 3.28 µM (active)

Q: And the IC50 [1]?
A: 22.8 µM (active)

Q: For `Cc1cc(C)nc(/N=c2/ssnc2Cl)c1`, which EC50 [2] is on record?
A: > 79.4 µM (not active)

Q: For `CCCCCCCCCCCCCCCCn1cc[n+](C)c1`, which EC50 (cells) is on record?
A: 0.44 µM (active)

Q: With `O=C(NC1(O)C(=O)c2ccccc2C1=O)c1ccccc1` as the molecule, how does the IC50 [3] read?
A: 25.5 µM (inactive)

Q: And the IC50 [4]?
A: 2.39 µM (active)

Q: What about the IC50 [5] of the same molecule?
A: 2.99 µM (active)
